According to PubChem BioAssay (NCI):
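Interpolation was linear, between the two tested concentrations surrounding the appropriate level; five concentrations were tested over 48 hours in 96-well plates. GI50 marks 50% less growth. TGI: concentration producing complete growth inhibition.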

Legend:
Experiment in all cases: DTP human tumour cell line panel, 48 h
[1] = tested on: M14 melanoma
[2] = tested on: OVCAR-4 ovarian
[3] = tested on: SF-295 CNS
[4] = tested on: COLO 205 colon
[5] = tested on: HT29 colon
[6] = tested on: NCI-H460 lung
[7] = tested on: SK-MEL-2 melanoma
[8] = tested on: NCI-H23 lung
[9] = tested on: MALME-3M melanoma
[10] = tested on: OVCAR-3 ovarian
[11] = tested on: HL-60(TB) leukemia
[12] = tested on: K-562 leukemia
[13] = tested on: UACC-62 melanoma
[14] = tested on: PC-3 prostate
[15] = tested on: CAKI-1 renal
[16] = tested on: DU-145 prostate
[17] = tested on: SR leukemia
[18] = tested on: NCI/ADR-RES ovarian
[19] = tested on: HOP-62 NSCLC
[20] = tested on: MOLT-4 leukemia
[21] = tested on: OVCAR-8 ovarian
[22] = tested on: MCF7 breast
[23] = tested on: KM12 colon
[24] = tested on: EKVX NSCLC
[25] = tested on: NCI-H522 lung
[26] = tested on: 786-0 renal
[27] = tested on: UO-31 renal
[28] = tested on: HCT-116 colon
[29] = tested on: A549 NSCLC
[30] = tested on: BT-549 breast
[31] = tested on: LOX IMVI melanoma
[32] = tested on: SF-268 CNS
[33] = tested on: RXF 393 renal
[34] = tested on: UACC-257 melanoma
[35] = tested on: T-47D breast
[36] = tested on: SF-539 CNS
[37] = tested on: SK-OV-3 ovarian
[38] = tested on: U251 CNS
[39] = tested on: OVCAR-5 ovarian
[40] = tested on: SK-MEL-28 melanoma
[41] = tested on: SNB-19 CNS
[42] = tested on: MDA-MB-435
[43] = tested on: ACHN renal
[44] = tested on: HCT-15 colon
[45] = tested on: TK-10 renal
[46] = tested on: IGROV1 ovarian
[47] = tested on: HCC-2998 colon
[48] = tested on: RPMI-8226 leukemia

## c1cc2c(s1)SSSSS2
[1]
  GI50: 11.2 µM
  TGI: 29.4 µM
[2]
  GI50: 24.2 µM
  TGI: 46.9 µM
[3]
  GI50: 18.3 µM
  TGI: 36.9 µM
[4]
  GI50: 17.6 µM
  TGI: 46.6 µM
[5]
  GI50: 23.3 µM
  TGI: 41.4 µM
[6]
  GI50: 19.9 µM
  TGI: 42.2 µM
[7]
  GI50: 29.3 µM
  TGI: > 100 µM
[8]
  GI50: 14.6 µM
  TGI: 30.7 µM
[9]
  GI50: 17.1 µM
  TGI: 40.2 µM
[10]
  GI50: 18 µM
  TGI: 34.5 µM
[11]
  GI50: 11.8 µM
  TGI: > 100 µM
[12]
  GI50: 16.1 µM
  TGI: > 100 µM
[13]
  GI50: 13.8 µM
  TGI: 28.1 µM
[14]
  GI50: 16.5 µM
  TGI: 39.6 µM
[15]
  GI50: 17.8 µM
  TGI: 36.6 µM
[16]
  GI50: 17.1 µM
  TGI: 34.1 µM
[17]
  GI50: 3.17 µM
  TGI: 22.8 µM
[18]
  GI50: 22.8 µM
  TGI: 46.4 µM
[19]
  GI50: 28.2 µM
  TGI: 55.3 µM
[20]
  GI50: 18.8 µM
  TGI: > 100 µM
[21]
  GI50: 36.3 µM
  TGI: > 100 µM
[22]
  GI50: 16.4 µM
  TGI: 35 µM
[23]
  GI50: 19.3 µM
  TGI: 38.1 µM
[24]
  GI50: 34.6 µM
  TGI: 68.2 µM
[25]
  GI50: 27.8 µM
  TGI: 81.8 µM
[26]
  GI50: 14.9 µM
  TGI: 29.1 µM
[27]
  GI50: 17.6 µM
  TGI: 33.7 µM
[28]
  GI50: 9.06 µM
  TGI: 21.2 µM
[29]
  GI50: 31.8 µM
  TGI: > 100 µM
[30]
  GI50: 33.8 µM
  TGI: 85.9 µM
[31]
  GI50: 11.9 µM
  TGI: 40.3 µM
[32]
  GI50: 19.1 µM
  TGI: 38.6 µM
[33]
  GI50: 18.4 µM
  TGI: 41.5 µM
[34]
  GI50: 35.2 µM
  TGI: > 100 µM
[35]
  GI50: 13 µM
  TGI: 32.4 µM
[36]
  GI50: 21.7 µM
  TGI: 39.6 µM
[37]
  GI50: 34.5 µM
  TGI: 72.7 µM
[38]
  GI50: 17.6 µM
  TGI: 39.6 µM
[39]
  GI50: 21.1 µM
  TGI: 36.6 µM
[40]
  GI50: 23 µM
  TGI: 41.9 µM
[41]
  GI50: 22.9 µM
  TGI: 47 µM
[42]
  GI50: 18.9 µM
  TGI: 35.8 µM
[43]
  GI50: 15.5 µM
  TGI: 31.7 µM
[44]
  GI50: 15.8 µM
  TGI: 85.9 µM
[45]
  GI50: 16.7 µM
  TGI: 33.5 µM
[46]
  GI50: 19 µM
  TGI: 43.1 µM
[47]
  GI50: 24 µM
  TGI: 39.9 µM
[48]
  GI50: 7.06 µM
  TGI: 29.4 µM
